Experiment [1] concerns NLRP3 inflammasome pathway. As to the kind of experiment: NLRP3 inflammasome pathway activation assay, Nigericin stimulation, IL-1β release (AlphaLISA). Format: cell-based. The following applies: PMA-differentiated, LPS-primed human monocyte-like cells, Nigericin 3.75 µM for 3 h. On the procedure: (§1) The following assays were used to determine the inhibitory activity of test compounds on the NLRP3 inflammasome pathway using common stimuli Nigericin (Invivogen) or monosodium urate crystals (MSU) (Invivogen).
(§2) Human monocyte-like cells were cultured in RPMI-1640 Glutamax medium supplemented with 10% heat inactivated FCS and 50 U/ml penicillin-streptomycin (Life Technologies).
(§3) Human monocyte-like cells were seeded at 75000 per well in a 96-well plate and were differentiated overnight into macrophages with 10 ng/ml PMA (Phorbol Myristate Acetate). The following day, medium containing 10 ng/ml LPS (Lipopolysaccharide) were added. After 3 hours of LPS priming, concentrations of test compound in the range from 100 µM to 6 nM were added 30 min prior to NLRP3 inflammasome pathway stimulation with Nigericin 3.75 µM or MSU 150 µg/ml for 3 h.
(§4) For IL-1β quantification, supernatants were analyzed using AlphaLISA kits according to the manufacturer’s instructions (Perkin Elmer AlphaLISA AL220F). Briefly, in a 384-well OptiPlate™ microplate, 5 µl of sample was mixed, with 20 µl of AlphaLISA Anti-Analyte Acceptor beads (10 µg/mL final) and Biotinylated Antibody Anti-Analyte (1 nM final). Then, incubated 60 minutes at RT, then 25 µL of 2X SA-Donor beads (40 µg/mL final) were added and incubated 30 minutes at RT in the dark. Reading was done using an EnVision-Alpha Reader (PerkinElmer).
(§5) IC50(concentration corresponding to 50% inhibition) were determined using GraphPad Prism 8.
A general note: Bead proximity is the source of the signal in Alpha formats.

Experiment [2] concerns NLRP3 inflammasome pathway. As to the kind of experiment: NLRP3 inflammasome pathway activation assay, MSU stimulation, IL-1β release (AlphaLISA). Format: cell-based. The following applies: PMA-differentiated, LPS-primed human monocyte-like cells, MSU 150 µg/ml for 3 h. As for the experimental part:
as §1, §2, §3, §4, §5

A word on the IC50: it is the concentration that gives 50% inhibition.

Bounds are passed on as bounds.

In the case of `CCOC(=O)C1(c2ccc(OC)nc2)CN=C(Nc2c3c(cc4c2CCC4)CCC3)O1` (centres unmarked) [Example 6, Ethyl 2-((1,2,3,5,6,7-hexahydro-s-indacen-4-yl)amino)-5-(6-methoxypyridin-3-yl)-4,5-dihydrooxazole-5-carboxylate], the concentration for half-maximal inhibition (IC50) in experiment [1] (Homo sapiens, 3 h) was under 1000 nM; in experiment [2] it was under 1000 nM.
Regarding `CC(C)(O)c1cc(C2(C(=O)O)CN=C(Nc3c4c(cc5c3CCC5)CCC4)O2)no1` (centres unmarked) [Example 22, 2-((1,2,3,5,6,7-hexahydro-s-indacen-4-yl)amino)-5-(5-(2-hydroxypropan-2-yl)isoxazol-3-yl)-4,5-dihydrooxazole-5-carboxylic Acid], the 50% inhibitory concentration (IC50) is 1000 to 10000 nM in experiment [1] (Homo sapiens, 3 h) and under 1000 nM in experiment [2].
Take `CCOC(=O)C1(c2ccc(OC)nc2)CN=C(Nc2c3c(cc4c2CCC4)CCC3)O1` (single isomer, unassigned) [Example 7, Ethyl 2-((1,2,3,5,6,7-hexahydro-s-indacen-4-yl)amino)-5-(6-methoxypyridin-3-yl)-4,5-dihydrooxazole-5-carboxylate]: the IC50 in experiment [1] and in experiment [2] was under 1000 nM throughout.
`CCOC(=O)C1(c2ccccn2)CN=C(Nc2c3c(cc4c2CCC4)CCC3)O1` (racemic) [Example 8, Ethyl 2-((1,2,3,5,6,7-hexahydro-s-indacen-4-yl)amino)-5-(pyridin-2-yl)-4,5-dihydrooxazole-5-carboxylate]: the half-inhibitory concentration (IC50) is under 1000 nM in experiment [1] (Homo sapiens, 3 h) and under 1000 nM in experiment [2].
Consider `CCOC(=O)C1(c2cccnc2)CN=C(Nc2c3c(cc4c2CCC4)CCC3)O1` (centres unmarked) [Example 11a, Ethyl 2-((1,2,3,5,6,7-hexahydro-s-indacen-4-yl)amino)-5-(pyridin-3-yl)-4,5-dihvdrooxazole-5-carboxylate], for which the 50% inhibitory concentration (IC50) is under 1000 nM in experiment [1] (Homo sapiens, 3 h) and under 1000 nM in experiment [2].
Turning to `CCOC(=O)C1(c2ccccc2)CN=C(Nc2c3c(c(F)c4c2CCC4)CCC3)O1` (racemic) [Example 30, ethyl 2-((8-fluoro-1,2,3,5,6,7-hexahydro-s-indacen-4-yl)amino)-5-phenyl-4,5-dihydrooxazole-5-carboxylate], the IC50 in experiment [1] (Homo sapiens, 3 h) is 1000 to 10000 nM; in experiment [2], under 1000 nM.
`CCOC(=O)C1(c2cc(C(C)(C)O)on2)OC(Nc2c3c(cc4c2CCC4)CCC3)=NC1C` (racemic) [Example 52, ethyl 2-((1,2,3,5,6,7-hexahydro-s-indacen-4-yl)amino)-5-(5-(2-hydroxypropan-2-yl)isoxazol-3-yl)-4-methyl-4,5-dihydrooxazole-5-carboxylate]: the 50% inhibitory concentration (IC50) in experiment [1] (Homo sapiens, 3 h) was under 1000 nM; in experiment [2], 1000 to 10000 nM.
On to `CCOC(=O)C1(c2ccccc2)CN=C(Nc2c3c(cc4c2CCC4)CCC3)O1` (racemic) [Example 1, Ethyl 2-((1,2,3,5,6,7-hexahydro-s-indacen-4-yl)amino)-5-phenyl-4,5-dihydrooxazole-5-carboxylate], for which the half-inhibitory concentration (IC50) in experiment [1] (Homo sapiens, 3 h) is under 1000 nM; in experiment [2], under 1000 nM.
As for `CCOC(=O)C1(c2cccc(Cl)c2)CN=C(Nc2c3c(cc4c2CCC4)CCC3)O1` (single isomer, unassigned) [Example 13a, Ethyl 5-(3-chlorophenyl)-2-((1,2,3,5,6,7-hexahydro-s-indacen-4-yl)amino)-4,5-dihydrooxazole-5-carboxylate], the IC50 in experiment [1] and in experiment [2] was under 1000 nM each time.
`CCOC(=O)C1(c2cc(C(C)(C)O)on2)CN=C(Nc2c3c(cc4c2CCC4)CCC3)O1` (centres unmarked) [Example 15, Ethyl 2-((1,2,3,5,6,7-hexahvdro-s-indacen-4-yl)amino)-5-(5-(2-hydroxypropan-2-yl)isoxazol-3-yl)-4,5-dihydrooxazole-5-carboxylate]: the half-maximal inhibitory concentration (IC50) in experiment [1] (Homo sapiens, 3 h) was under 1000 nM; in experiment [2], under 1000 nM.
In the case of `CCOC(=O)C(O)(CNC(=S)Nc1c2c(cc3c1CCC3)CCC2)c1cc(C(C)(C)O)on1` (single isomer, unassigned) [Example 14a, Ethyl 3-(3-(1,2,3,5,6,7-hexahydro-s-indacen-4-yl)thioureido)-2-hydroxy-2-(5-(2-hydroxypropan-2-yl)isoxazol-3-yl)propanoate], the IC50 in experiment [1] and in experiment [2] was under 1000 nM each time.
For the compound `CCOC(=O)C1(c2ccc(Cl)cc2)CN=C(Nc2c3c(cc4c2CCC4)CCC3)O1` (racemic) [Example 10, Ethyl 5-(4-chlorophenyl)-2-((1,2,3,5,6,7-hexahydro-s-indacene-4-yl)amino)-4,5-dihydrooxazole-5-carboxylate], the half-maximal inhibitory concentration (IC50) in experiment [1] (Homo sapiens, 3 h) lay within 1000 to 10000 nM; in experiment [2], 1000 to 10000 nM.
Take `CCOC(=O)C1(c2nccn2C)CN=C(Nc2c3c(cc4c2CCC4)CCC3)O1` (centres unmarked) [Example 3, Ethyl 2-((1,2,3,5,6,7-hexahvdro-s-indacen-4-vl)amino)-5-(1-methyl-1H-imidazol-2-yl)-4,5-dihydrooxazole-5-carboxylate]: the concentration for half-maximal inhibition (IC50) in experiment [1] (Homo sapiens, 3 h) was under 1000 nM; in experiment [2] it was under 1000 nM.
Regarding `CCOC(=O)C(O)(CNC(=S)Nc1c2c(cc3c1CCC3)CCC2)c1cc(C(C)C)on1` (centres unmarked) [Example 46, ethyl 3-(3-(1,2,3,5,6,7-hexahydro-s-indacen-4-yl)thioureido)-2-hydroxy-2-(5-isopropylisoxazol-3-yl)propanoate], the results for the half-inhibitory concentration (IC50) in experiment [1] and in experiment [2] were under 1000 nM and 1000 to 10000 nM, respectively.
Consider `CCOC(=O)C1(c2ccccn2)CN=C(Nc2c3c(cc4c2CCC4)CCC3)O1` (single isomer, unassigned) [Example 9, Ethyl 2-((1,2,3,5,6,7-hexahydro-s-indacen-4-yl)amino)-5-(pyridin-2-yl)-4,5-dihydrooxazole-5-carboxylate], for which the IC50 in experiment [1] and in experiment [2] was under 1000 nM in each case.
For the compound `CCOC(=O)C1(c2ccc(Cl)cc2)CN=C(Nc2c3c(cc4c2CCC4)CCC3)O1` (single isomer, unassigned) [Example 10a, Ethyl 5-(4-chlorophenyl)-2-((1,2,3,5,6,7-hexahydro-s-indacene-4-yl)amino)-4,5-dihydrooxazole-5-carboxylate], the half-maximal inhibitory concentration (IC50) is 10000 to 30000 nM in experiment [1] and under 1000 nM in experiment [2].
Take “Ethyl 2-((1,2,3,5,6,7-hexahydro-s-indacen-4-yl)amino)-5-(tetrahvdro-2H-pyran-4-yl)-4,5-dihydrooxazole-5-carboxylate [Example 12]”: the IC50 in experiment [1] and in experiment [2] was 1000 to 10000 nM in each case.
As to `CCOC(=O)C1(c2nccn2C)CN=C(Nc2c3c(cc4c2CCC4)CCC3)O1` (centres unmarked) [Example 4, Ethyl 2-((1,2,3,5,6,7-hexahydro-s-indacen-4-vl)amino)-5-(1-methyl-1H-imidazol-2-yl)-4,5-dihydrooxazole-5-carboxylate], the IC50 in experiment [1] and in experiment [2] was under 1000 nM throughout.
With `CCOC(=O)C(O)(CNC(=S)Nc1c2c(cc3c1CCC3)CCC2)c1cc(C(C)(C)O)on1` (racemic) [Example 14, Ethyl 3-(3-(1,2,3,5,6,7-hexahydro-s-indacen-4-yl)thioureido)-2-hydroxy-2-(5-(2-hydroxypropan-2-yl)isoxazol-3-yl)propanoate], the IC50 in experiment [1] and in experiment [2] was under 1000 nM in each case.
In the case of `CC(C)OC(=O)C1(c2ccon2)CN=C(Nc2c3c(cc4c2CCC4)CCC3)O1` (centres unmarked) [Example 56, Isopropyl 2-((1,2,3,5,6,7-hexahydro-s-indacen-4-vl)amino)-5-(isoxazol-3-yl)-4,5-dihvdrooxazole-5-carboxylate], the IC50 in experiment [2] was under 1000 nM.
In turn, `COC(=O)C1(c2nccs2)CN=C(Nc2c3c(cc4c2CCC4)CCC3)O1` (racemic) [Example 62, methyl 2-((1,2,3,5,6,7-hexahydro-s-indacen-4-yl)amino)-5-(thiazol-2-yl)-4,5-dihydrooxazole-5-carboxylate] came in with an IC50 in experiment [2] of under 1000 nM.
The compound `CCCCCOC(=O)C1(c2cc(C(C)(C)O)on2)CN=C(Nc2c3c(cc4c2CCC4)CCC3)O1` (racemic) [Example 79, pentyl 2-((1,2,3,5,6,7-hexahydro-s-indacen-4-yl)amino)-5-(5-(2-hydroxypropan-2-yl)isoxazol-3-yl)-4,5-dihydrooxazole-5-carboxylate] gave an IC50 in experiment [2] of under 1000 nM.
The compound `CCCCCOC(=O)C1(c2ccno2)CN=C(Nc2c3c(cc4c2CCC4)CCC3)O1` (racemic) [Example 92, pentyl 2-((1,2,3,5,6,7-hexahydro-s-indacen-4-yl)amino)-5-(isoxazol-5-yl)-4,5-dihydrooxazole-5-carboxylate] came in with a half-inhibitory concentration (IC50) in experiment [2] of under 1000 nM.
Take `CCOC(=O)C1(c2nc(C(C)C)cs2)CN=C(Nc2c3c(cc4c2CCC4)CCC3)O1` (racemic) [Example 55, ethyl 2-((1,2,3,5,6,7-hexahydro-s-indacen-4-yl)amino)-5-(4-isopropylthiazol-2-yl)-4,5-dihydrooxazole-5-carboxylate]: the 50% inhibitory concentration (IC50) in experiment [2] is under 1000 nM.
Same read-out and setting: the figure for `COC(=O)C1(c2ccno2)CN=C(Nc2c3c(cc4c2CCC4)CCC3)O1` (racemic) [Example 87, methyl 2-((1,2,3,5,6,7-hexahydro-s-indacen-4-yl)amino)-5-(isoxazol-5-yl)-4,5-dihydrooxazole-5-carboxylate] is under 1000 nM.

The record behind these values is patent publication US20230250070A1, “DIHYDROOXAZOLE AND THIOUREA DERIVATIVES MODULATING THE NLRP3 INFLAMMASOME PATHWAY” (AC IMMUNE SA, priority 2020, published 2023).
